In patent US20230190743A1, “TREATMENT WITH ILEAL BILE ACID TRANSPORTER (IBAT) INHIBITORS FOR INCREASED EVENT-FREE SURVIVAL (EFS)” (Mirum Pharmaceuticals, Inc., priority 2021, published 2023):

Tested on: patients with BSEP deficiency (PFIC2)
Test: INDIGO Phase 2 trial, HRQoL analysis by sBA treatment response at week 48
Format: in vivo, human
Set-up: key to HRQoL score at week 48, PedsQL Generic Core Scale / HRQoL score at week 48, Multidimensional Fatigue Scale / HRQoL score at week 48, Family Impact Scale: HRQoL scale scores in points; MCID = 5 points; key to Beta, sBA treatment response at week 48 Yes vs No, Multidimensional Fatigue Scale / Beta, sBA treatment response at week 48 Yes vs No, Family Impact Scale: change from baseline in HRQoL score, in points (MCID 5 points)
Conditions: for 5-point change, Family Impact Scale / 5-point change, Multidimensional Fatigue Scale / 5-point change, PedsQL Generic Core Scale / 10-point change, Family Impact Scale / 10-point change, Multidimensional Fatigue Scale / 10-point change, PedsQL Generic Core Scale: baseline to week 48; for HRQoL score at week 48, Family Impact Scale / HRQoL score at week 48, Multidimensional Fatigue Scale / HRQoL score at week 48, PedsQL Generic Core Scale / HRQoL score change from baseline to week 48, Family Impact Scale: mean ± SD
Experimental: This retrospective analysis included data from patients with BSEP deficiency from the INDIGO Phase 2 open-label trial of MRX in children with PFIC. Pruritus was measured using a validated caregiver-reported Itch Reported Outcome (ItchRO) severity assessment tool (0=none to 4=very severe). Serum bile acid (sBA) response with MRX was defined as a >75% decrease from baseline or reduction to <102 μmol/L from baseline to week 48. HRQoL was assessed using the Pediatric Quality of Life Inventory Generic Core (PedsQL), Family Impact (FI), and Multidimensional Fatigue (MF) scale scores, and were collected via caregiver. The minimal clinically important difference (MCID) for the HRQoL assessments is 5 points. A subset of individual items from the HRQoL scales were also selected for assessment with treatment response. HRQoL was assessed at baseline and week 48 and scores were stratified by treatment response. P-values were calculated using t-test or ANOVA. Multivariate linear regression models were used to assess the relationship between mean change from baseline in HRQoL score and indicators for treatment response, adjusting for baseline HRQoL.

[1] = over the 48 weeks, controlling for baseline score

## CCCCC1(CCCC)CS(=O)(=O)c2ccc(N(C)C)cc2[C@@H](c2ccc(OCc3ccc(C[N+]45CCN(CC4)CC5)cc3)cc2)[C@H]1O [maralixibat]
At 48 weeks
  patients who achieved sBA treatment response: 6 patients
  patients who achieved sBA treatment response (>75% decrease from baseline or <102 μmol/L): 28.6%
Multivariate regression, N = 16, CI 3.5, 41.1
  Beta, sBA treatment response at week 48 Yes vs No, Multidimensional Fatigue Scale: 22.3
Multivariate regression, N = 20, CI −7.7, 19.4
  Beta, sBA treatment response at week 48 Yes vs No, Family Impact Scale: 5.8
[1]
  average increase of Multidimensional Fatigue scale score, sBA responders versus non-responders: 22 points
  mean increase of PedsQL score, sBA responders versus non-responders: 17 points
sBA Non-responders
  5-point change, Family Impact Scale: 1 (7.1) n (%)
  5-point change, Multidimensional Fatigue Scale: 3 (25.0) n (%)
  5-point change, PedsQL Generic Core Scale: 2 (15.4) n (%)
  10-point change, Family Impact Scale: 1 (7.1) n (%)
  10-point change, Multidimensional Fatigue Scale: 2 (16.7) n (%)
  10-point change, PedsQL Generic Core Scale: 2 (15.4) n (%)
  HRQoL score at week 48, Family Impact Scale: 62.7 ± 16.0
  HRQoL score at week 48, Multidimensional Fatigue Scale: 69.2 ± 18.5
  HRQoL score at week 48, PedsQL Generic Core Scale: 65.9 ± 13.8
  HRQoL score change from baseline to week 48, Family Impact Scale: −2.5 ± 9.8
sBA Responders
  5-point change, Family Impact Scale: 4 (66.7) n (%)
  5-point change, Multidimensional Fatigue Scale: 4 (100) n (%)
  5-point change, PedsQL Generic Core Scale: 4 (80.0) n (%)
  10-point change, Family Impact Scale: 4 (66.7) n (%)
  10-point change, Multidimensional Fatigue Scale: 4 (100) n (%)
  10-point change, PedsQL Generic Core Scale: 3 (60.0) n (%)
  HRQoL score at week 48, Family Impact Scale: 60.0 ± 15.5
  HRQoL score at week 48, Multidimensional Fatigue Scale: 76.0 ± 13.4
  HRQoL score at week 48, PedsQL Generic Core Scale: 79.3 ± 9.5
  HRQoL score change from baseline to week 48, Family Impact Scale: 8.0 ± 20.7
sBA non-responders
  patients with a change of ≥5 points in PedsQL Generic Core Total Scale Score: 15.4%
  patients with a ≥10-point change in PedsQL Multidimensional Fatigue Total Scale Score: 16.7%
sBA responders
  change in Family Impact Score from baseline to week 48: > 1.5 times the MCID
  patients with a change of ≥5 points in PedsQL Generic Core Total Scale Score: 80.0%
  patients with a ≥10-point change in PedsQL Multidimensional Fatigue Total Scale Score: 100%
